The text below walks through data of US20100063080A1, “CXCR2 inhibitors” (priority 2006, published 2010).

The assay addresses T1, human CXCR2 receptor (Homo sapiens, UniProt P25025).
T1 construct: purchased Biosignal Packard Inc; host or cells: CHO-K1 membranes
T1 sequence (P25025 1-360): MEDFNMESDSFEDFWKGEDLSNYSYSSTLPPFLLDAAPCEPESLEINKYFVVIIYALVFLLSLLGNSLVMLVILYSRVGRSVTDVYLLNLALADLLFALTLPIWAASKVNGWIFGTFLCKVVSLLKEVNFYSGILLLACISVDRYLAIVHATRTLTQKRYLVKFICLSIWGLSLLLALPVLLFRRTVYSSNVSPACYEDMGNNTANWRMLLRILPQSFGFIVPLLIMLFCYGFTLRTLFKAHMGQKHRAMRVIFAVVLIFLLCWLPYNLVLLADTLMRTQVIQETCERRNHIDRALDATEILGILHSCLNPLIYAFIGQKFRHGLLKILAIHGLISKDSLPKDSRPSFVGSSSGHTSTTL
The assay can be described thus: [35S]-GTPγS binding assay for human CXCR2 receptor using SPA technology. It counts as biochemical. The conditions noted are these: CHO-K1 membranes expressing human CXCR2; 100 nM IL-8; read-out: IC50 in the [35S]-GPTγS binding assay. The text has this:
[^35S]-GTPγS Binding Assay for Human CXCR2 Receptor using SPA Technology
[^35S]-GTPγS (with specific activity 1082 Ci/mmol) and wheat germ agglutinin poly vinyl toluene scintillation proximity beads are purchased from Amersham Pharmacia Biotech. The Chinese hamster ovary cell (CHO-K1) membranes expressing human CXCR2 receptors are purchased from Biosignal Packard Inc. All other chemicals are of analytical grade. White non-binding surface 96 well Optiplate™ microplates are obtained from Packard. Recombinant human IL-8 is synthesised, cloned and expressed in Escherichia coli as described previously (Lindley I, et al., Proc. Natl. Acad. Sci., 1988, 85(23):9199). The assay is performed in duplicate in 96 well Optiplate™ microplate in a final volume of 250 μl per well. Compounds are diluted in DMSO (0.5% final concentration) and incubated in 20 mM HEPES buffer pH 7.4 containing 10 mM MgCl2, 100 mM NaCl, 1 mM EDTA plus 100 nM IL-8, 50 μM GDP and […] [^35S]GTPγS per well. SPA beads (1 mg/well final concentration) were pre-mixed with the membranes (10 μg/well final concentration) in assay buffer: 20 mM HEPES buffer pH 7.4 containing 10 mM MgCl2, 100 mM NaCl, 1 mM EDTA. […] The plate is centrifuged and read on Packard TopCount™ scintillation counter, program [^35S dpm] for 1 min/well. Data are expressed as the % response to 100 nM IL-8 minus basal.

As to `CCOC(=O)CNC(=O)[C@@H]1C[C@H]1c1nc(SCc2cccc(F)c2F)nc(O)c1C#N` (relative stereo) [Example 49, Trans-({2-[5-Cyano-2-(2,3-difluoro-benzylsulfanyl)-6-hydroxy-pyrimidin-4-yl]-cyclopropanecarbonyl}-amino)-acetic acid ethyl ester], the IC50 was 820 nM.
The value for `CCC1CCCN1C(=O)C1CC1c1nc(SCc2cccc(F)c2F)nc(O)c1C#N` (centres unmarked) [Example 43, 2-(2,3-Difluoro-benzylsulfanyl)-4-[2-(2-ethyl-pyrrolidine-1carbonyl)-cyclopropyl]-6-hydroxypyrimidine-5-carbonitrile] was 230 nM.
